Patent publication US4386103A, “Dichloroamino acid derivatives useful as potent germicidal and fungicidal agents” (Merck & Co., Inc., priority 1981, dated 1983)

Tests used:
Format in all cases: cell-based
Bacillus subtilis = assay: Contact germicidal screen, Bacillus subtilis ATCC No. 60511
Description: The organisms used in the contact germicidal screen are all maintained as stock cultures on nutrient agar […] 4° C. They are transferred and biochemically diagnosed monthly. The five organisms used are: The media used are: […] Overnight cultures of the test organisms are grown in tryptose phosphate broth. After 15-16 hours, the cultures are centrifuged at […] for 15 minutes, and the supernatant replaced with fresh warm (37° C.) media. After two hours of incubation, the absorbance of the culture at 650 nm is determined and diluted with nutrient broth to 1×10^7 colony forming units per ml (using a previous determined standard curve: colony forming units/ml vs. absorbance at 650). The diluted cultures are maintained at 4°-8° C. throughout the screen. The compounds are weighed into sterile 100 ml volumetric flasks, and immediately before screening dissolved in one of the following buffers: 0.1 M NaOAc pH 4.6 or 0.1 M NaH2 PO4 pH 7.0. If solubility poses a problem, 10-30% methanol is used to effect solution. Two denaturing agents are also tested: […] Horse Serum restored with 100 ml distilled water and 10% Trition×100. When used, 2.5 ml of the denaturing agent is mixed with 2.5 ml of double strength test solution thirty minutes before the bacterial suspension is added. The screen is initiated when 0.2 ml of the bacterial suspension is added to 5.0 ml of the test solution contained in a sterile 25 ml glass stoppered flask. At intervals of 0.5, 2.5, 5.0, 10.0 and 15.0 minutes, a loopful of the inoculated test solution is subcultured into 5 ml of sterile nutrient broth and mixed with a vortex, the high dilution serving to stop the action of the compound. All of the subculture tubes are incubated at 37° C. and checked for signs of growth by turbidity at 1, 3, 5 and 7 days. The earliest subculture time at which no growth is present is considered the endpoint and is recorded as the sterilization time. An aliquot of 0.2 ml of the diluted culture is transferred to 5 ml of buffer to simulate 0.2 ml in 5 ml of test solution. (a) Purity: A loopful of the inoculated buffer is streaked onto nutrient agar to check colony morphology and lack of contaminants. (b) Viability: A loopful of the inoculated buffer is subcultured to 5 ml of nutrient broth as in the screen and incubated at 37° C. for 24 hours. (c) Dilution of the Test Solution: A loopful of the test solution is transferred to a 5 ml tube of nutrient broth, and a loopful of the inoculated buffer is transferred to the same tube of broth. […] (d) Purity of Organisms in the Test Solution: After the 15 minute subculture, a loopful of the inoculated test solution is streaked onto nutrient agar to insure that contamination has not occurred during the screen. (e) lack of Bactericidal Activity of Buffers and Other Solvents: Before a buffer or other solvent is used as a diluent, it is screened against the five organisms to insure that the buffer or solvent has no antibacterial activity itself.

Candida albican = assay: Contact fungicidal screen, Candida albican; details: 0.1M NaOAc pH 4.6
Description: The organisms used in the Contact Fungicidal Screen are a dermatophyte, trychophyton mentagrophytes, frequently associated with athlete's foot; a yeast, Candida albican, causative agent of thrush and vaginitis; a phycomycete, Rhizopus oryzae, commonly known as black bread mold; an ascomycete, Aspergillus fumagatis, found in chicken droppings and causing lung infections; and another dermatophyte, Microsporum canis, which causes ringworm. These organisms are maintained as stock cultures at 4° C. on agar slants of the following composition: dextrose 2%, Neopeptone (Difco) 1%, agar 2%. Fluid medium of the same nutrient composition (without agar) was used to test the viability of the organisms after exposure to the fungicide. This medium is also known as Sabouraud's medium.
The Candida albican is grown in Sabouraud's liquid medium at 25°-30° C. for three days. At the end of the incubation period the cell suspension is centrifuged at 200 G and washed with sterile physiological saline (0.85% NaCl). The density of the cell suspension is determined by counting in a hemacytometer. The suspension is stored a 4° C. until it is used, at which time it is diluted with sterile physiological saline to a density of 5×10^6 cells per ml.
The compounds are weighed into heat sterilized 100 ml volumetric flasks and immediately before screening dissolved in 0.1 M NaOAc pH 4.6 buffer (test solutions).
The Aspergillus, Candida, Microsporum and Rhizopus species are screened in a slightly different manner. Basically, the procedure for the Contact Germicidal Efficiency Screen is utilized. After the test solutions are made up, 5 ml aliquots are pipetted into heat sterilized 25 ml glass stoppered erlenmeyer flasks. The screen is initiated when 0.5 ml of the 5×10^6 cell (spore) per ml suspension is added to the flask containing 5 ml of the test solution. At intervals of 0.5, 2.5, 5.0, 10.0 and 15.0 minutes, a 4 mm loopful of the inoculated test solution is subcultured into 7 mL of sterile fluid Sabouraud's medium and mixed on a vortex, the high dilution serving to stop the action of the compound. The subculture tubes are incubated at 25°-30° C. for ten days with daily observation for mycelial growth. The earliest subculture time at which no growth is present is considered the endpoint and is recorded as the sterilization time.
To insure the viability of the culture, a 0.5 ml aliquot of the 5×10^6 cells (spores) per ml suspension is transferred to 5 ml of the pH 4.6 buffer. A loopful of the inoculated buffer is then subcultured to 7 ml of fluid Sabouraud's medium and incubated at 25°-30° C. for ten days. To insure that the dilution of the test solution into the subculture medium does stop the action, a loopful of the test solution and a loopful of the inoculated buffer are transferred into the same subculture tube. This tube is also incubated at 25°-30° C. for ten days.

[1] = tested on: Trychophyton mentagrophytes; assay: Contact fungicidal screen, Trychophyton mentagrophytes; details: 0.1M NaOAc pH 4.6
[2] = 10.0+ PPM, 0.1M NaOAc pH 4.6, screened simultaneously with four other compounds
[3] = 300 PPM with 50% Horse Serum, 0.1M NaOAc pH 4.6
[4] = 300 PPM with 50% Triton X100, 0.1M NaOAc pH 4.6
[5] = 1000 PPM with 50% Horse Serum, 0.1M NaOAc pH 4.6
[6] = 308.0 PPM, Triton X100 (10% solution):pH 4.6 buffer 1:1

CC(C)(CC(=O)O)N(Cl)Cl [(II)]
Sterilization Time (Bacillus subtilis; 1.8 PPM, 0.1M NaOAc pH 4.6): 5.0 min | Sterilization Time (Bacillus subtilis; 4.5 PPM, 0.1M NaOAc pH 4.6): 2.5 min | Sterilization Time (Bacillus subtilis; [2]): 2.5 min | Sterilization Time (summary) (Bacillus subtilis; 10 PPM, 0.1M NaOAc pH 4.6): 2.5 min | Sterilization Time (Bacillus subtilis; 10.0 PPM, 0.1M NaOAc pH 4.6): 2.5 min | Sterilization Time (Bacillus subtilis; 12.2 PPM, 0.1M NaOAc pH 4.6): 2.5 min | Sterilization Time (Bacillus subtilis; 32.1 PPM, 0.1M NaOAc pH 4.6): 0.5 min | Sterilization Time (Bacillus subtilis; 51.0 PPM, Triton X100 (10% solution):pH 4.6 buffer 1:1): 0.5 min | Sterilization Time (Bacillus subtilis; 51.0 PPM, horse serum:pH 4.6 buffer 1:1): 15 min | Sterilization Time (Bacillus subtilis; 71.7 PPM, 0.1M NaOAc pH 4.6): 0.5 min | Sterilization Time (summary) (Bacillus subtilis; 100 PPM, 0.1M NaOAc pH 4.6): 0.5 min | Sterilization Time (Bacillus subtilis; 104.7 PPM, 0.1M NaOAc pH 4.6): 0.5 min | Sterilization Time (Bacillus subtilis; 107.8 PPM, 0.1M NaH2PO4 pH 7.0): 5.0 min | Sterilization Time (Bacillus subtilis; 298.9 PPM, 0.1M NaOAc pH 4.6): 0.5 min | Sterilization Time (summary) (Bacillus subtilis; [3]): 2.5 min | Sterilization Time (summary) (Bacillus subtilis; [4]): 0.5 min | Sterilization Time (Bacillus subtilis; 300 PPM, pH 4.6 buffer with 10% serum): 0.5 min | Sterilization Time (Bacillus subtilis; 300 PPM, pH 4.6 buffer with 20% serum): 0.5 min | Sterilization Time (Bacillus subtilis; 300 PPM, pH 4.6 buffer with 35% serum): 2.5 min | Sterilization Time (Bacillus subtilis; 304.6 PPM, horse serum:pH 4.6 buffer 1:1): 2.5 min | Sterilization Time (Bacillus subtilis; 304.8 PPM, Triton X100 (10% solution):pH 4.6 buffer 1:1): 0.5 min | Sterilization Time (Bacillus subtilis; 316.6 PPM, 0.1M NaH2PO4 pH 7.0): 2.5 min | Sterilization Time (Bacillus subtilis; 606.9 PPM, pH 4.6 buffer with 33% serum): 0.5 min | Sterilization Time (Bacillus subtilis; 899.25 PPM, pH 4.6 buffer with 25% serum): 0.5 min | Sterilization Time (summary) (Bacillus subtilis; [5]): 0.5 min | Sterilization Time (summary) (Bacillus subtilis; 1000 PPM, 0.1M NaOAc pH 4.6): 0.5 min | Sterilization Time (Bacillus subtilis; 1001.2 PPM, horse serum:pH 4.6 buffer 1:1): 0.5 min | Sterilization Time (Bacillus subtilis; 1014.8 PPM, 0.1M NaOAc pH 4.6): 0.5 min | Sterilization Time (Bacillus subtilis; 1016.0 PPM, 0.1M NaH2PO4 pH 7.0): 0.5 min | Sterilization Time (Candida albican; 10 PPM): 15 min | Sterilization Time (Candida albican; 100 PPM): 15 min | Sterilization Time (Candida albican; 1000 PPM): 2.5 min | Sterilization Time ([1]; 10 PPM): 5.0 min | Sterilization Time ([1]; 100 PPM): 0.5 min | Sterilization Time ([1]; 1000 PPM): 0.5 min

CC(C)(CCC(=O)O)N(Cl)Cl [(III), 4-Dichloroamino-4-methylvaleric acid]
Sterilization Time (Bacillus subtilis; 9.6 PPM, 0.1M NaOAc pH 4.6): 2.5 min | Sterilization Time (Bacillus subtilis; 9.7 PPM, 0.1M NaH2PO4 pH 7.0): 15 min | Sterilization Time (Bacillus subtilis; [2]): 2.5 min | Sterilization Time (summary) (Bacillus subtilis; 10 PPM, 0.1M NaOAc pH 4.6): 2.5 min | Sterilization Time (summary) (Bacillus subtilis; 100 PPM, 0.1M NaOAc pH 4.6): 0.5 min | Sterilization Time (Bacillus subtilis; 102.2 PPM, 0.1M NaOAc pH 4.6): 0.5 min | Sterilization Time (Bacillus subtilis; 103.5 PPM, 0.1M NaH2PO4 pH 7.0): 10.0 min | Sterilization Time (summary) (Bacillus subtilis; [3]): 2.5 min | Sterilization Time (summary) (Bacillus subtilis; [4]): 0.5 min | Sterilization Time (Bacillus subtilis; [6]): 0.5 min | Sterilization Time (Bacillus subtilis; 308.0 PPM, horse serum:pH 4.6 buffer 1:1): 2.5 min | Sterilization Time (summary) (Bacillus subtilis; [5]): 0.5 min | Sterilization Time (summary) (Bacillus subtilis; 1000 PPM, 0.1M NaOAc pH 4.6): 0.5 min | Sterilization Time (Bacillus subtilis; 1000.0 PPM, horse serum:pH 4.6 buffer 1:1): 0.5 min | Sterilization Time (Bacillus subtilis; 1007.7 PPM, 0.1M NaOAc pH 4.6): 0.5 min | Sterilization Time (Bacillus subtilis; 1012.3 PPM, 0.1M NaH2PO4 pH 7.0): 2.5 min | Sterilization Time (Candida albican; 10 PPM): 15 min | Sterilization Time (Candida albican; 100 PPM): 15 min | Sterilization Time (Candida albican; 1000 PPM): 0.5 min | Sterilization Time ([1]; 10 PPM): 5.0 min | Sterilization Time ([1]; 100 PPM): 0.5 min | Sterilization Time ([1]; 1000 PPM): 0.5 min

CC(C)(COC(=O)CCC(=O)O)N(Cl)Cl [(IV), 2-Dichloroamino-2-methylpropylhemisuccinate]
Sterilization Time (Bacillus subtilis; 8.6 PPM, 0.1M NaOAc pH 4.6): 5.0 min | Sterilization Time (Bacillus subtilis; 9.8 PPM, 0.1M NaH2PO4 pH 7.0): 15 min | Sterilization Time (Bacillus subtilis; [2]): 2.5 min | Sterilization Time (summary) (Bacillus subtilis; 10 PPM, 0.1M NaOAc pH 4.6): 2.5 min | Sterilization Time (summary) (Bacillus subtilis; 100 PPM, 0.1M NaOAc pH 4.6): 2.5 min | Sterilization Time (Bacillus subtilis; 106.2 PPM, 0.1M NaOAc pH 4.6): 2.5 min | Sterilization Time (Bacillus subtilis; 149.7 PPM, 0.1M NaH2PO4 pH 7.0): 10.0 min | Sterilization Time (summary) (Bacillus subtilis; [3]): 5.0 min | Sterilization Time (summary) (Bacillus subtilis; [4]): 0.5 min | Sterilization Time (Bacillus subtilis; [6]): 0.5 min | Sterilization Time (Bacillus subtilis; 338.7 PPM, horse serum:pH 4.6 buffer 1:1): 5.0 min | Sterilization Time (summary) (Bacillus subtilis; [5]): 0.5 min | Sterilization Time (summary) (Bacillus subtilis; 1000 PPM, 0.1M NaOAc pH 4.6): 0.5 min | Sterilization Time (Bacillus subtilis; 1008.0 PPM, 0.1M NaOAc pH 4.6): 0.5 min | Sterilization Time (Bacillus subtilis; 1024.0 PPM, horse serum:pH 4.6 buffer 1:1): 0.5 min | Sterilization Time (Bacillus subtilis; 1070.3 PPM, 0.1M NaH2PO4 pH 7.0): 2.5 min | Sterilization Time (Candida albican; 10 PPM): 15 min | Sterilization Time (Candida albican; 100 PPM): 15 min | Sterilization Time (Candida albican; 1000 PPM): 2.5 min | Sterilization Time ([1]; 10 PPM): 5.0 min | Sterilization Time ([1]; 100 PPM): 2.5 min | Sterilization Time ([1]; 1000 PPM): 0.5 min
